Laboratory results as given in the supplement of paper PMC10307832.

Experiments:
Assay in all cases: relative viability (nuclei count vs DMSO), 5 days (fraction); higher = more cells survive
[1] = compound: C1COCCN1C2=NC(=NC3=C2OC4=C3C=CC=N4)C5=CC(=CC=C5)NC(=O)C6=CN=C(C=C6)N + CC(=O)Nc1cccc(-n2c(=O)n(C3CC3)c(=O)c3c(Nc4ccc(I)cc4F)n(C)c(=O)c(C)c32)c1 [Trametinib] (partner 0.02 µM)
Method in brief: (§1)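 Each reported value is a median over duplicate plates. It expresses relative viability: treated-well nuclei count divided by vehicle-well nuclei count. Lung cancer cell lines in 1536-well plates were dosed by pin tool a day after seeding, alone with one drug or with a fixed anchor-drug dose plus five library-drug doses (not always all listed) in √10 steps, and nuclei were counted after 5 days.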

[2] = compound: C1COCCN1C2=NC(=NC3=C2OC4=C3C=CC=N4)C5=CC(=CC=C5)NC(=O)C6=CN=C(C=C6)N + COc1cccc2cc(-c3nc([C@H]4CC[C@H](C(=O)O)CC4)n4ncnc(N)c34)[nH]c12 [OSI-027] (partner 0.5 µM)
Method in brief: as §1

Entinostat + Tozasertib = compound: Nc1ccccc1NC(=O)c1ccc(CNC(=O)OCc2cccnc2)cc1 [Entinostat] + Cc1cc(Nc2cc(N3CCN(C)CC3)nc(Sc3ccc(NC(=O)C4CC4)cc3)n2)n[nH]1 [Tozasertib] (partner 0.1 µM)
Method in brief: as §1

Entinostat + Linsitinib = compound: Nc1ccccc1NC(=O)c1ccc(CNC(=O)OCc2cccnc2)cc1 [Entinostat] + C[C@]1(O)C[C@@H](c2nc(-c3ccc4ccc(-c5ccccc5)nc4c3)c3c(N)nccn32)C1 [Linsitinib] (partner 1 µM)
Method in brief: as §1

Cell Line	relative viability ([1]; first compound 0.02 µM)	relative viability ([1]; first compound 0.06325 µM)	relative viability ([1]; first compound 0.2 µM)	relative viability ([1]; first compound 0.6325 µM)	relative viability ([1]; first compound 2 µM)	relative viability ([2]; first compound 0.02 µM)	relative viability ([2]; first compound 0.06325 µM)	relative viability ([2]; first compound 0.2 µM)	relative viability ([2]; first compound 0.6325 µM)	relative viability ([2]; first compound 2 µM)	relative viability (Entinostat + Tozasertib; first compound 0.02 µM)	relative viability (Entinostat + Tozasertib; first compound 0.06325 µM)	relative viability (Entinostat + Tozasertib; first compound 0.2 µM)	relative viability (Entinostat + Tozasertib; first compound 0.6325 µM)	relative viability (Entinostat + Tozasertib; first compound 2 µM)	relative viability (Entinostat + Linsitinib; first compound 0.02 µM)	relative viability (Entinostat + Linsitinib; first compound 0.06325 µM)	relative viability (Entinostat + Linsitinib; first compound 0.2 µM)	relative viability (Entinostat + Linsitinib; first compound 0.6325 µM)	relative viability (Entinostat + Linsitinib; first compound 2 µM)
201T	0.697	0.713	0.705	0.686	0.563	0.858	0.743	0.72	0.515	0.851	0.898	0.811	0.589	0.501	0.385	1.1	1.13	1.09	0.902	0.617
A549																0.595	0.646	0.627	0.648	0.602
A-427	0.718	0.732	0.682	0.684	0.563	0.407	0.416	0.469	0.399	0.394	0.213	0.225	0.203	0.182	0.159	1.16	1.15	1.01	1.07	0.825
ABC-1						0.462	0.451	0.461	0.368	0.407	0.175	0.237	0.189	0.2	0.193	0.686	0.992	0.807	0.481	0.506
BEN	1	0.947	1.11	0.888	0.939	0.283	0.297	0.295	0.274	0.389	0.476	0.478	0.443	0.356	0.401	0.974	0.928	0.83	0.537	0.249
CAL-12T	0.28	0.324	0.272	0.354	0.303	0.579	0.583	0.446	0.477	0.323	0.284	0.364	0.319	0.186	0.206	0.838	0.815	0.814	0.909	0.392
COR-L23	0.609	0.669	0.663	0.593	0.469	0.937	0.733	0.739	0.704	0.432	0.159	0.19	0.198	0.0831	0.0903	0.829	0.763	0.748	0.416	0.132
COR-L 105	0.421	0.411	0.415	0.403	0.465	0.623	0.645	0.576	0.556	0.414	0.372	0.291	0.309	0.273	0.286	1.01	0.974	0.876	0.491	0.341
Calu-6																0.859	0.961	0.852	0.739	0.502
ChaGo-K-1	0.906	0.987	0.941	0.804	0.602	0.529	0.566	0.523	0.586	0.466	0.256	0.227	0.211	0.197	0.19					
EBC-1																0.934	0.94	0.811	0.22	0.122
EKVX	0.322	0.334	0.298	0.248	0.244	0.626	0.484	0.888	0.673	0.558	0.384	0.414	0.323	0.234	0.192	0.896	1.01	0.79	0.663	0.438
EMC-BAC-2	0.838	0.924	0.853	0.789	0.725	0.346	0.406	0.333	0.346	0.32	0.302	0.254	0.228	0.17	0.229	0.837	0.915	0.983	0.731	0.487
EPLC-272H	0.278		0.235	0.297	0.281	0.311	0.305	0.289	0.247	0.328	0.265	0.291	0.277	0.154	0.197	1.2	1.22	0.697	0.627	0.405
H3255	0.703	0.588	0.604	0.663	0.421	0.626	0.56	0.464	0.465	0.552	0.48	0.468	0.503	0.315	0.204	0.892	0.87	0.765	0.507	0.304
HARA	0.728	0.738	0.848	0.433	0.601	0.52	0.609	0.381	0.391	0.283	0.121	0.123	0.138	0.117	0.0945	0.917	0.938	0.938	0.793	0.577
HCC-15	0.413	0.423	0.343	0.325	0.278	0.709	0.702	0.644	0.506	0.456	0.306	0.346	0.258	0.0932	0.0635	0.82	0.8	0.713	0.546	0.319
HCC-44	1.12	1.31	1.04	1.09	1	0.458	0.567	0.39	0.391	0.419	0.898	0.581	0.553	0.309	0.221	0.676	0.474	0.357	0.27	0.197
HCC-78	0.926	0.836	0.899	0.756	0.566	0.409	0.389	0.369	0.407	0.329	0.577	0.432	0.248	0.241	0.173	0.496	0.395	0.306	0.156	0.151
HCC-366	0.4	0.341	0.394	0.231	0.138	0.82	1.04	0.68	0.537	0.352	0.0983	0.0503	0.0518	0.0518	0.0252	0.859	0.758	0.461	0.175	0.0447

Cell Line	relative viability ([1]; first compound 0.02 µM)	relative viability ([1]; first compound 0.06325 µM)	relative viability ([1]; first compound 0.2 µM)	relative viability ([1]; first compound 0.6325 µM)	relative viability ([1]; first compound 2 µM)	relative viability ([2]; first compound 0.02 µM)	relative viability ([2]; first compound 0.06325 µM)	relative viability ([2]; first compound 0.2 µM)	relative viability ([2]; first compound 0.6325 µM)	relative viability ([2]; first compound 2 µM)	relative viability (Entinostat + Tozasertib; first compound 0.02 µM)	relative viability (Entinostat + Tozasertib; first compound 0.06325 µM)	relative viability (Entinostat + Tozasertib; first compound 0.2 µM)	relative viability (Entinostat + Tozasertib; first compound 0.6325 µM)	relative viability (Entinostat + Tozasertib; first compound 2 µM)	relative viability (Entinostat + Linsitinib; first compound 0.02 µM)	relative viability (Entinostat + Linsitinib; first compound 0.06325 µM)	relative viability (Entinostat + Linsitinib; first compound 0.2 µM)	relative viability (Entinostat + Linsitinib; first compound 0.6325 µM)	relative viability (Entinostat + Linsitinib; first compound 2 µM)
HCC-827	0.488	0.573	0.459	0.483	0.408	0.769	0.851	0.72	0.684	0.487	0.425	0.406	0.335	0.302	0.184	0.958	0.883	0.722	0.582	0.421
HOP-62	0.403	0.415	0.323	0.359	0.227	0.947	0.938	0.713	0.748	0.481	0.355	0.312	0.304	0.228	0.152	0.743	1.01	0.711	0.403	0.266
IA-LM																0.645	0.774	0.785	0.628	0.543
LC-2-ad	0.959	0.983	0.962	0.899	0.654	0.834	0.981	0.747	0.72	0.625	0.425	0.367	0.368	0.299	0.242	0.769	0.831	0.7	0.489	0.219
LCLC-97TM1	0.187	0.205	0.204	0.169	0.134	0.525	0.519	0.485	0.507	0.353	0.218	0.213	0.192	0.177	0.167	0.158	0.147	0.139	0.165	0.14
LCLC-103H	0.66	0.693	0.693	0.62	0.479	0.409	0.419	0.446	0.452	0.335	0.495	0.35	0.366	0.308	0.214	1.07	1.12	0.937	0.931	0.715
LK-2	0.787	0.798	0.637	0.583	0.426	0.196	0.178	0.165	0.216	0.196	0.151	0.176	0.168	0.159	0.168	0.522	0.59	0.639	0.459	0.274
LOU-NH91	0.78	0.816	0.828	0.782	0.716	0.699	0.686	0.739	0.68	0.657	0.736	0.671	0.616	0.523	0.344	0.911	1.02	0.95	0.816	0.714
LU99A	0.592	0.576	0.547	0.452	0.389	0.308	0.288	0.241	0.274	0.267	0.281	0.294	0.292	0.239	0.228	0.505	0.552	0.479	0.394	0.348
NCI-H522	0.797	0.901	0.681	0.758	0.592	0.75	0.732	0.714	0.687	0.721	0.576	0.509	0.516	0.48	0.371					
NCI-H1299																0.962	0.914	0.95	0.754	0.601
NCI-H1563						0.824	0.766	0.719	0.659	0.706						1.14	1.2	1.09	0.897	0.769
NCI-H1623						0.459	0.434	0.447	0.414	0.405	0.498	0.442	0.373	0.352	0.305					
NCI-H1648	0.54	0.534	0.456	0.405	0.482	0.285	0.229	0.264		0.279	0.566	0.483	0.414	0.411	0.341					
NCI-H1650	0.535	0.497	0.575	0.526	0.39	0.657	0.617	0.434	0.548	0.397	0.336	0.366	0.332	0.223	0.204					
NCI-H1703																0.883	0.805	0.857	0.919	0.582
NCI-H1792	0.451	0.477	0.368	0.374	0.231	0.659	0.684	0.753	0.679	0.42						0.476	0.502	0.392	0.276	0.153
NCI-H2170	0.936	0.987	0.84	0.919	0.399	0.796	0.76	0.651	0.786	0.596	0.685	0.677	0.461	0.391	0.172					
NCI-H2342	0.743	0.963	0.807	0.805	0.79	0.666	0.603	0.661	0.615	0.649	0.465	0.429	0.377	0.372	0.333					
SW 900	0.596	0.965	0.807	0.583	0.513	0.759	0.492	0.43	0.467	0.357	0.573	0.62	0.515	0.282	0.206					
